Patent US4027039A (priority 1975, dated 1977)
Like-named read-outs stand apart in the source and are kept apart here.

Legend:
[1] = system: Influenza, Ann Arbor virus; test: Influenza Ann Arbor in mice, subcutaneous; late read day 9 (Table 11), 7 (Tables 12, 14), 5 (Table 13); assay type: in vivo, mouse; settings: total dose .05 μg
Herpes virus [2] = test: Herpes virus in chicken eggs, single dose 24 hours pre-infection; assay type: in vivo, chick embryo
Herpes virus [3] = system: Herpes virus
Influenza PR 8 virus = test: Influenza PR 8 in mice, oral; schedule by table; late read day 6 (Table 37), 7 (33, 36), 8 (32, 35, 47), 10 (38); control fraction 18/20 (Table 32), 19/20 (Table 35), else 100%; assay type: in vivo, mouse
Vaccinia virus = system: Vaccinia virus; design: species or system fertile eggs; settings: various concentrations
[4] = system: Influenza B Massachusetts virus; test: Influenza B Mass. in mice, oral; late read day 5 (Table 39), 7 (Table 40), 11 (Tables 61, 65); control fraction 16/20 (Table 61), else 100%; assay type: in vivo, mouse
Procedure: A portion of a commercially available sample of amantadine was recrystallized from isopropanol. The activity of the material against Influenza B Mass. was tested for the sample as obtained, the recrystallized portion, and the mother liquor obtained from recrystallizing the portion.

NNC(N)=O [semicarbazide]
No. animals surviving after 5-9 days [1]: 0
No. dying 5-22 day (Herpes virus [2]; 2 μg): 0
No. living longer than controls (Herpes virus [2]; 2 μg): 0
Total deaths, 4th day (Herpes virus [2]; 2 μg): 10
Deaths on day 2 (Herpes virus [2]; 20 μg): 1
Deaths on day 3 (Herpes virus [2]; 20 μg): 5
No. dying 5-22 day (Herpes virus [2]; 20 μg): 0
No. living longer than controls (Herpes virus [2]; 20 μg): 1
Total deaths, 4th day (Herpes virus [2]; 20 μg): 11
Deaths on day 1 (Herpes virus [2]; .00005 μg): 4
Deaths on day 3 (Herpes virus [2]; .00005 μg): 4
No. dying 5-22 day (Herpes virus [2]; .00005 μg): 1
No. living longer than controls (Herpes virus [2]; .00005 μg): 1
Total deaths, 4th day (Herpes virus [2]; .00005 μg): 11
Deaths on day 3 (Herpes virus [2]; .0005 μg): 6
Deaths on day 4 (Herpes virus [2]; .0005 μg): 1
No. dying 5-22 day (Herpes virus [2]; .0005 μg): 0
No. hatched (Herpes virus [2]; .0005 μg): 1
No. living longer than controls (Herpes virus [2]; .0005 μg): 1
Total deaths, 4th day (Herpes virus [2]; .0005 μg): 11
No. hatched (Herpes virus [2]; .005 μg): 1
No. living longer than controls (Herpes virus [2]; .005 μg): 4
Total deaths, 4th day (Herpes virus [2]; .005 μg): 7
Deaths on day 1 (Herpes virus [2]; .05 μg): 1
Deaths on day 2 (Herpes virus [2]; .05 μg): 4
Deaths on day 3 (Herpes virus [2]; .05 μg): 6
No. dying 5-22 day (Herpes virus [2]; .05 μg): 0
No. living longer than controls (Herpes virus [2]; .05 μg): 1
Total deaths, 4th day (Herpes virus [2]; .05 μg): 11
Deaths on day 3 (Herpes virus [2]; .5 μg): 5
Total deaths, 4th day (Herpes virus [2]; .5 μg): 9
Total no. living longer than controls (Herpes virus [2]; all doses): 10
animals survived (Herpes virus [3]; mouse, in vivo): 20 to 30%
animals protected (Herpes virus [3]; no pre-treatment, one dose level): 50%
No. animals surviving after 6-9 days (Herpes virus [3]; total dose 5 μg): 7
No. animals surviving after 6-9 days (Herpes virus [3]; total dose .00005 μg): 5
No. animals surviving when 100% (or given fraction) of controls are dead (Herpes virus [3]; total dose .00005 μg): 5
No. animals surviving when 100% (or given fraction) of controls are dead (Herpes virus [3]; total dose .0005 μg): 0
No. animals surviving after 6-9 days (Herpes virus [3]; total dose .05 μg): 5
Survivors (Influenza PR 8 virus; total dose .000005 μg): 0
No. animals surviving when 100% (or given fraction) of controls are dead (Influenza PR 8 virus; total dose .00005 μg): 0
Survivors (Influenza PR 8 virus; total dose .00005 μg): 0
No. animals surviving when 100% (or given fraction) of controls are dead (Influenza PR 8 virus; total dose .0005 μg): 0
Survivors (Influenza PR 8 virus; total dose .0005 μg): 0
No. animals surviving when 100% (or given fraction) of controls are dead (Influenza PR 8 virus; total dose .005 μg): 0
Survivors (Influenza PR 8 virus; total dose .005 μg): 0
effect on pox formation on the membrane (Vaccinia virus): No effect
No. animals surviving when 100% (Table 61: 16/20) of controls are dead ([4]; total dose .000005 μg (5 pg)): 0
Survivors ([4]; total dose .000005 μg (5 pg)): 0
No. animals surviving when 100% (Table 61: 16/20) of controls are dead ([4]; total dose .00005 μg (50 pg)): 0
Survivors ([4]; total dose .00005 μg (50 pg)): 0
No. animals surviving when 100% (Table 61: 16/20) of controls are dead ([4]; total dose .0005 μg (500 pg)): 1
Survivors ([4]; total dose .0005 μg (500 pg)): 0
No. animals surviving after 5 days (Table 61: 11 days) ([4]; total dose .005 μg (5 ng)): 6
No. animals surviving when 100% (Table 61: 16/20) of controls are dead ([4]; total dose .005 μg (5 ng)): 3
Survivors ([4]; total dose .005 μg (5 ng)): 0
No. animals surviving after 5 days (Table 61: 11 days) ([4]; total dose .05 μg (50 ng)): 6
No. animals surviving when 100% (Table 61: 16/20) of controls are dead ([4]; total dose .05 μg (50 ng)): 1
Survivors ([4]; total dose .05 μg (50 ng)): 0
No. animals surviving when 100% (Table 61: 16/20) of controls are dead ([4]; total dose .5 μg (500 ng)): 1
Survivors ([4]; total dose .5 μg (500 ng)): 0
